This note sets out measurements from ChEMBL document CHEMBL1156829 (Proc Natl Acad Sci U S A, 2008).

For orientation: CC50 means the concentration at which the toxic effect on the cells reaches its halfway point. Low readings indicate greater toxicity to the cells, high ones lower toxicity to the cells. Broadly, the EC50 is the concentration that produces a half-maximal response.

The nature of data set [1]: NOVARTIS: Cytotoxicity against human hepatocellular carcinoma cell line (Huh7). The format is toxicity, cell-based, Huh-7. The note with it: Huh7 cells (hepatocellular carcinoma cell line).
Data set [2] concerns Plasmodium falciparum. As to the kind of experiment: NOVARTIS: Inhibition of Plasmodium falciparum W2 (drug-resistant) proliferation in erythrocyte-based infection assay. The format is functional, organism-based. The note with it: Plasmodium falciparum, W2; read-out: EC50.
Data set [3] relates to Plasmodium falciparum. Kind of data set: NOVARTIS: Inhibition of Plasmodium falciparum 3D7 (drug-susceptible) proliferation in erythrocyte-based infection assay. It is filed as functional, organism-based. The note with it: Plasmodium falciparum, 3D7.

Where only a bound is given, the exact number is not on record here.

In turn, `COc1ccc(C2C3=C(O)CC(C)(C)CC3=Nc3[nH]nc(C)c32)cc1` (configuration not stated) had a cytotoxic concentration (CC50) in data set [1] above 100 µM. For the same compound, the EC50 was above 12.5 µM with Plasmodium falciparum [2] and above 3.32 µM in the data set with Plasmodium falciparum [3].
For `COC(=O)C1=C(C)N/C(=C\c2cc(C)n(-c3cc(C)ccc3OC)c2C)C1=O`, in that order: above 10 µM, above 1.25 µM and 0.4 µM.
For `Cc1[nH]n(-c2ccccc2)c(=O)c1C(=O)CN(C(=O)c1ccc2c(c1)OCO2)C(C)C` the same measures were above 10 µM, above 1.25 µM and above 0.469 µM.
For `O=C(CNC(=O)c1ccccc1)Oc1ccc(Cl)cc1` the same measures were above 10 µM, above 1.25 µM and 0.537 µM.
With `O=S1(=O)CCC(O)c2ccsc21` (configuration not stated), in data set [1], the cytotoxic concentration (CC50) is above 100 µM. Besides, the results for the EC50 in the data set on Plasmodium falciparum [2] and in the data set on Plasmodium falciparum [3] were above 12.5 µM and 4.18 µM, respectively.
For `Oc1c2c(nc3cc(-c4ccc(Cl)cc4)nn13)CCCC2` the same measures were above 100 µM, above 12.5 µM and 6.48 µM.
For `Cc1ccnc(Nc2nc(-c3ccc(Cl)cc3)cs2)c1` the same measures were above 100 µM, above 12.5 µM and 4.51 µM.
For `O=C(Nc1cccnc1)c1cc(-c2cccnc2)nc2ccc(Cl)cc12`, in that order: above 100 µM, above 12.5 µM and 3.96 µM.
The compound `COc1ccc(C2N=C(N)N=C(N)N2c2ccc(Cl)cc2)cc1OC` (configuration not stated) gave a 50% cytotoxic concentration (CC50) in data set [1] above 10 µM. For the same compound, the values for the EC50 with Plasmodium falciparum [2] and in the data set with Plasmodium falciparum [3] were above 1.25 µM and 0.326 µM, respectively.
For `CS(=O)(=O)c1cnc2ncnn2c1C1CCCN(C(=O)c2ccccn2)C1` (configuration not stated), in that order: above 10 µM, above 1.25 µM and 0.311 µM.
For `CCOC(=O)C1=C(C)N(c2ccc(OCC)cc2)C(=O)C1=Cc1ccc(C(C)C)cc1`, in that order: above 100 µM, above 12.5 µM and 3.5 µM.
For `Cn1nc(C(C)(C)C)cc1C(=O)N1CCCN1C(=O)CNC(=O)c1ccco1` the same measures were above 10 µM, above 1.25 µM and above 0.335 µM.
In data set [1], `Cc1ccc(C(=O)CSc2nc(N)c(C#N)c(-c3cccs3)c2C#N)cc1` showed a CC50 above 100 µM. Besides, the EC50 with Plasmodium falciparum [2] is above 12.5 µM; with Plasmodium falciparum [3] it was above 5 µM.
For `C[N+]1(CCOC(=O)CCC(=O)OCC[N+]2(C)CCCCCC2)CCCCCC1` the same measures were above 10 µM, above 1.25 µM and above 0.479 µM.
For `COc1ccc2c(c1)C(C)=CC(C)(C)N2C(=O)CSc1nnc(-c2ccc(C)cc2)o1`, in that order: above 10 µM, above 1.25 µM and 0.467 µM.
For `COC(=O)c1c(-c2c(F)cccc2Cl)noc1/C=C/Nc1ccc(OC)cc1` the same measures were above 10 µM, above 1.25 µM and 0.427 µM.
For `CCN1CCN(c2cc(C)c3cc(NC(=O)/C=C/c4cc(OC)ccc4OC)ccc3n2)CC1`, in data set [1], the CC50 was above 10 µM. Further, the half-maximal effective concentration (EC50) is above 1.25 µM with Plasmodium falciparum [2] and 0.397 µM in the data set on Plasmodium falciparum [3].
For `N#CC(C#N)C(/C(Sc1ccc([N+](=O)[O-])cc1)=C(/O)c1ccccc1)c1cccs1` (configuration not stated), in that order: above 10 µM, above 1.25 µM and above 0.403 µM.
For `COc1ccc(-c2ccc(C=NNC(=O)CNC(=O)c3ccc4c(c3)OCO4)o2)cc1Cl` the same measures were above 10 µM, above 1.25 µM and above 0.375 µM.
For `O=C(NCCc1ccccc1)c1cnc(NCCCN2CCCC2)nc1Nc1ccccc1` the same measures were above 10 µM, above 1.25 µM and 0.541 µM.
As for `O=C(CCNS(=O)(=O)c1ccc(Br)s1)N1CCc2ccccc2C1`, the CC50 in data set [1] was above 100 µM. Besides, the concentration giving a half-maximal response (EC50) with Plasmodium falciparum [2] is above 12.5 µM; in the data set on Plasmodium falciparum [3], above 5.6 µM.
For the compound `CCc1c(C#N)c(N)nc2sc(C(=O)c3ccc(Br)cc3)c(N)c12`, in data set [1], the cytotoxic concentration (CC50) is above 100 µM. The figures for the EC50 with Plasmodium falciparum [2] and with Plasmodium falciparum [3] were above 12.5 µM and 5.46 µM, respectively.
The compound `CCCC(C(=O)NCCC(C)C)N(C(=O)c1snc(C(N)=O)c1N)c1ccc(C(C)C)cc1` (configuration not stated) displayed a CC50 in data set [1] above 100 µM. Besides, the EC50 is above 12.5 µM in the data set with Plasmodium falciparum [2] and 5.44 µM with Plasmodium falciparum [3].
For `CC(C)C1N=C2c3ccccc3N=C(SCC(=O)Nc3cc(C(F)(F)F)ccc3Cl)N2C1=O` (configuration not stated), in that order: above 100 µM, above 12.5 µM and 5.91 µM.
For `CCCc1cc2c(=O)c(-c3ccc4c(c3)OCO4)c(CC)oc2cc1OC(C)C` the same measures were above 100 µM, above 12.5 µM and 5.84 µM.
In data set [1], `CCOc1ccc2nc(Sc3nc(Nc4cccc(C)c4)nc(Nc4cccc(C)c4)n3)sc2c1` had a CC50 above 100 µM. Also, the concentration giving a half-maximal response (EC50) in the data set on Plasmodium falciparum [2] was above 12.5 µM; in the data set on Plasmodium falciparum [3], 5.81 µM.
For `CN(Cc1ccccc1)C(=O)CSc1nc(NCc2ccccc2)c2ccccc2n1`, in that order: above 100 µM, above 12.5 µM and above 3.03 µM.
For `Cc1nccn1CC(C)C(=O)N1CCCC(n2nc(-c3cccs3)ccc2=O)C1` (configuration not stated), in that order: above 10 µM, above 1.25 µM and above 0.62 µM.
For `CC(C)CNc1nc(NCCCN)ncc1C(=O)NCCc1ccccc1`, in that order: above 10 µM, above 1.25 µM and 0.598 µM.
In turn, `CCCCN(CC)C(=O)CSc1nc2ccccc2c(=O)n1Cc1ccco1` came in with a CC50 in data set [1] above 10 µM. For the same compound, the half-maximal effective concentration (EC50) in the data set on Plasmodium falciparum [2] was above 1.25 µM; in the data set with Plasmodium falciparum [3], above 0.594 µM.
For `O=C(NCc1ccccc1)c1cnc(NCCCN2CCCC2)nc1NCCc1ccccc1`, in that order: above 10 µM, above 1.25 µM and 0.648 µM.
Regarding `CCCCCCC(=O)NC1CCC(Nc2ccnc3cc(Cl)ccc23)CC1` (configuration not stated), the CC50 in data set [1] is above 10 µM. Further, the concentration for a half-maximal effect (EC50) in the data set on Plasmodium falciparum [2] is above 1.25 µM; in the data set with Plasmodium falciparum [3], 0.63 µM.
In the case of `CCOc1ccc2nc(SCc3nc(N)nc(N4CCOCC4)n3)sc2c1`, in data set [1], the CC50 is above 10 µM. The 50% effective concentration (EC50) with Plasmodium falciparum [2] was above 1.25 µM; with Plasmodium falciparum [3], above 0.627 µM.
For `CCOC(=O)c1c(C)[nH]c(C)c1S(=O)(=O)N1CCCC(C(=O)N2CCN(c3cccc(C)c3C)CC2)C1` (configuration not stated), in that order: above 100 µM, above 12.5 µM and 5.26 µM.
In data set [1], `COC(=O)c1cc(NC(=S)NC(=O)c2c(OC)cccc2OC)cc(C(=O)OC)c1` came in with a cytotoxic concentration (CC50) above 100 µM. Besides, the EC50 with Plasmodium falciparum [2] was above 12.5 µM; in the data set with Plasmodium falciparum [3] it was 5.17 µM.
For `O=c1c(=O)n(Cc2cccc(C(F)(F)F)c2)ccn1CCc1ccccc1`, in that order: above 10 µM, above 1.25 µM and above 0.673 µM.
For `Cc1ccc(C(=O)NCCNC(=O)CN2CCOCC2)cc1` the same measures were above 10 µM, above 1.25 µM and above 0.671 µM.
For `CN1CCCC1CCNc1ncc(C(=O)NCc2ccccc2)c(NC2CCCC2)n1` (configuration not stated) the same measures were above 10 µM, above 1.25 µM and 0.658 µM.
Take `COc1cc(C(=O)Nc2nnc(-c3ccccc3)o2)cc(OC)c1OC`: the half-maximal cytotoxic concentration (CC50) in data set [1] is above 100 µM. Also, the results for the EC50 in the data set with Plasmodium falciparum [2] and in the data set on Plasmodium falciparum [3] were above 12.5 µM and 5.18 µM, respectively.
For `COC(=O)c1ccc(N2C(=O)C3C(C2=O)C2(c4ccccc4)C(=O)C3(c3ccccc3)C(c3ccc(OC)cc3)=C2c2ccc(OC)cc2)cc1` (configuration not stated) the same measures were above 100 µM, above 12.5 µM and 4.83 µM.
For `OC(COc1ccc(OCC(O)CN2CCN(C3c4ccccc4-c4ccccc43)CC2)cc1)CN1CCN(C2c3ccccc3-c3ccccc32)CC1` (configuration not stated), in that order: above 100 µM, above 12.5 µM and above 6.19 µM.
For `COc1cccc2cc(-c3nc(-c4ccccc4)cs3)c(=O)oc12` the same measures were above 10 µM, above 1.25 µM and above 0.611 µM.
`CC1=NNC(=O)C1C(c1ccc(Cl)cc1Cl)C1C(=O)NN=C1C` (configuration not stated) registered a CC50 in data set [1] above 10 µM. The EC50 with Plasmodium falciparum [2] was above 1.25 µM; in the data set with Plasmodium falciparum [3] it was above 0.484 µM.
For `CCCN1CCC(c2nc(N3CCOCC3)ncc2-c2cc(C)no2)CC1`, in that order: above 10 µM, above 1.25 µM and above 0.433 µM.
For `CN(C)CCNC(=O)c1c[nH]c2ccc(S(=O)(=O)N3CCc4ccccc43)cc2c1=O`, in that order: above 10 µM, above 1.25 µM and 0.418 µM.
In data set [1], `COC(=O)c1cn2c(=O)c3ccccc3nc2c2ccccc12` came in with a half-maximal cytotoxic concentration (CC50) above 10 µM. Further, the EC50 in the data set with Plasmodium falciparum [2] was above 1.25 µM; in the data set on Plasmodium falciparum [3] it was above 0.385 µM.
For `CCOC(=O)c1ccc(N(C(=O)CSCC(=O)Nc2cc(C)on2)C(C(=O)NC2CCCCC2)c2ccc(O)c(O)c2)cc1` (configuration not stated) the same measures were above 10 µM, above 1.25 µM and above 0.316 µM.
In data set [1], `CCCCN(CCCC)S(=O)(=O)c1nc(C)c(Cl)c(C)c1C#N` had a cytotoxic concentration (CC50) above 100 µM. The EC50 in the data set with Plasmodium falciparum [2] was above 12.5 µM; with Plasmodium falciparum [3], 3.09 µM.
`O=C1c2cccc(N3CCN(Cc4cccn4-c4nccs4)CC3)c2C(=O)N1Cc1ccc(Cl)cc1` gave a cytotoxic concentration (CC50) in data set [1] above 100 µM. Further, the figures for the 50% effective concentration (EC50) in the data set on Plasmodium falciparum [2] and in the data set with Plasmodium falciparum [3] were above 12.5 µM and 5.47 µM, respectively.
For `O=C(CCCOc1ccc(Cl)cc1Cl)NCCCn1ccnc1`, in that order: above 10 µM, above 1.25 µM and 0.48 µM.
For `COc1ccc(OC)c(NC2=C(Cl)C(=O)N(c3ccc(C)c(Cl)c3)C2=O)c1`, in that order: above 100 µM, above 12.5 µM and 5.07 µM.
For `COc1ccc(C(=O)n2nc(N)c3cc4ccc(C)cc4nc32)cc1[N+](=O)[O-]`, in that order: above 100 µM, above 12.5 µM and above 5.42 µM.
In data set [1], `O=C(c1cnsn1)N1CCCC(COc2cccc(CN3CCC(Cc4ccccc4)CC3)c2)C1` (configuration not stated) returned a CC50 above 100 µM. Moreover, the half-maximal effective concentration (EC50) in the data set with Plasmodium falciparum [2] was above 12.5 µM; in the data set on Plasmodium falciparum [3] it was above 3.67 µM.
For `O=C(NCc1cc2cc3c(cc2nc1Cl)OCO3)c1ccco1`, in that order: above 10 µM, above 1.25 µM and above 0.586 µM.
